≈ marks a conversion by molar mass, not a printed value. Read-outs that look alike come from different tables or passages of the source.
Columns and labels:
[1] = test system: B. catarrhalis W-0500; test: MIC, agar plate dilution method; assay type: cell-based; conditions: Moraxella catarrhalis, W0500, 37° C., 20 hours, read-out: Antimicrobial activity (MIC)
Experimental: (§1) Antimicrobial activities of the compounds of the present invention were determined by measuring minimum inhibitory concentration (MIC). Minimum inhibitory concentration was determined by the agar plate dilution method in the following manner.
(§2) Test strains were subjected to seed culture using Sensitivity test broth (STB, Nissui Pharmaceutical) except that the strains belonging to the genus Streptococcus, Branhamella and Haemophilus were cultured on blood agar plate. A 5 μl portion of cell suspension of the test strains having about 10^6 CFU/ml was inoculated into Sensitivity disk agar (SDA, Nissui Pharmaceutical) supplemented with 5% horse blood and incubated at 37° C. for 20 hours. Then, MIC was measured. For comparison, MDM and leucomycin A7 (LM-A7) was also tested.

[2] = test system: B. catarrhalis W-0506; test: MIC, agar plate dilution method; assay type: cell-based; conditions: Moraxella catarrhalis, W0506, 37° C., 20 hours, read-out: Antimicrobial activity (MIC)
Experimental: as §1, §2

[3] = test system: E. coli NIHJ JC-2; test: MIC, agar plate dilution method; assay type: cell-based; conditions: Escherichia coli, NIHJJC2; E. coli NIHJ JC-2; 37° C., 20 hours; read-out: Antimicrobial activity (MIC)
Experimental: as §1, §2

[4] = test system: E. faecalis W-73; test: MIC, agar plate dilution method; assay type: cell-based; conditions: Enterococcus faecalis, W73; E. faecalis W-73; 37° C., 20 hours; read-out: Antimicrobial activity (MIC)
Experimental: as §1, §2

[5] = test system: H. influenzae 9334; test: MIC, agar plate dilution method; assay type: cell-based; conditions: Haemophilus influenzae; H. influenzae 9334; 37° C., 20 hours; read-out: Antimicrobial activity (MIC)
Experimental: as §1, §2

[6] = test system: H. influenzae Type b; test: MIC, agar plate dilution method; assay type: cell-based; conditions: Haemophilus influenzae, read-out: Antimicrobial activity (MIC)
Experimental: as §1, §2

[7] = test system: K. pneumoniae PC1602; test: MIC, agar plate dilution method; assay type: cell-based; conditions: Klebsiella pneumoniae, 37° C., 20 hours, read-out: Antimicrobial activity (MIC)
Experimental: as §1, §2

[8] = test system: M. luteus ATCC9341; test: MIC, agar plate dilution method; assay type: cell-based; conditions: Micrococcus luteus; M. luteus ATCC9341; 37° C., 20 hours; read-out: Antimicrobial activity (MIC)
Experimental: as §1, §2

[9] = test system: S. Pneumoniae Type 1; test: MIC, agar plate dilution method; assay type: cell-based; conditions: Streptococcus pneumoniae; S. Pneumoniae Type 1; 37° C., 20 hours; read-out: Antimicrobial activity (MIC)
Experimental: as §1, §2

[10] = test system: S. Pyogenes Cook; test: MIC, agar plate dilution method; assay type: cell-based; conditions: Streptococcus pyogenes, 37° C., 20 hours, read-out: Antimicrobial activity (MIC)
Experimental: as §1, §2

[11] = test system: S. aureus 209P JC-1; test: MIC, agar plate dilution method; assay type: cell-based; conditions: Staphylococcus aureus, read-out: Antimicrobial activity (MIC)
Experimental: as §1, §2

[12] = test system: S. aureus M126; test: MIC, agar plate dilution method; assay type: cell-based; conditions: Staphylococcus aureus, read-out: Antimicrobial activity (MIC)
Experimental: as §1, §2

[13] = test system: S. aureus M133; test: MIC, agar plate dilution method; assay type: cell-based; conditions: Staphylococcus aureus, 37° C., 20 hours, read-out: Antimicrobial activity (MIC)
Experimental: as §1, §2

[14] = test system: S. aureus MS15009/pMS98; test: MIC, agar plate dilution method; assay type: cell-based; conditions: Staphylococcus aureus, MS15009/PMS98, 20 h, read-out: Antimicrobial activity (MIC)
Experimental: as §1, §2

[15] = test system: S. aureus MS15009/pMS99; test: MIC, agar plate dilution method; assay type: cell-based; conditions: Staphylococcus aureus, MS15009/PMS99, 20 h, read-out: Antimicrobial activity (MIC)
Experimental: as §1, §2

[16] = test system: S. aureus MS15026; test: MIC, agar plate dilution method; assay type: cell-based; conditions: Staphylococcus aureus, 37° C., 20 hours, read-out: Antimicrobial activity (MIC)
Experimental: as §1, §2

[17] = test system: S. aureus MS15027; test: MIC, agar plate dilution method; assay type: cell-based; conditions: Staphylococcus aureus, 37° C., 20 hours, read-out: Antimicrobial activity (MIC)
Experimental: as §1, §2

[18] = test system: S. epidermidis ATCC14990; test: MIC, agar plate dilution method; assay type: cell-based; conditions: Staphylococcus epidermidis, 37° C., 20 hours, read-out: Antimicrobial activity (MIC)
Experimental: as §1, §2

[19] = test system: S. pneumoniae IP692; test: MIC, agar plate dilution method; assay type: cell-based; conditions: Streptococcus pneumoniae; S. pneumoniae IP692; 37° C., 20 hours; read-out: Antimicrobial activity (MIC)
Experimental: as §1, §2

[20] = test system: Gram-positive bacteria; test: antimicrobial activity in vitro (summary in words); assay type: cell-based; conditions: from Tables 2 and 3
Experimental: as §1, §2

[21] = test system: test strains; test: antimicrobial activity in vitro, comparison in words; assay type: cell-based; conditions: data are not shown
Experimental: as §1, §2

[22] = concentration in serum after oral administration to mice, bioassay; assay type: in vivo, mice (Jcl:ICR)
Experimental: The compound (3) was mixed with a 0.2% solution of carboxymethylcellulose to give a concentration of 4 mg/ml and a 1 ml portion of the resulting emulsion was orally administered to 4-week-old male Jcl:ICR mice. Blood was collected from armpit of the mice 30, 60, 120, 240 and 360 minutes after the administration of the test compound (n=2). The collected blood was allowed to stand at room temperature for about 2 hours and centrifuged for 20 minutes with a centrifuge (KUBOTA KS-5000P) to obtain serum. To the serum was added an equivalent volume of 50% CH3 CN-50 mM phosphate (1:1 by volume) buffer (pH 7.0). The resulting mixture served as a serum sample. The concentration of the test compound in the serum sample was measured by the following bioassay method.
One hundred […] of the serum sample was poured into a hole made on a test plate containing 40 ml of MRAPJ medium (6 g/l peptone, 3 g/l yeast extract, 1.5 g/l meat extract, 1 g/l glucose and 15 g/l agar, pH 6.5) supplemented with a solution of M. Iuteus ATCC9341 (1%) and incubated at 32° C. for 18 hours and MIC was measured based on the calibration curve. MOM, MDM and RKM were also tested for comparison. […] Thus a long-pending problem of "low concentration in serum" of 16-membered macrolide antibiotics has been solved. […] Thus this compound is considered as a macrolide derivative showing new pharmacokinetics.
Further, a pharmacokinetics test on the compound (12) of the present invention is carried out in the same manner as described above. Namely, 200 mg/kg of the compound (12) is orally administered to mice and the concentration of this compound in the serum is determined by a bioassay method with the use of M. luteus as a test strain. […] The disadvantage of 16-membered ring macrolide antibiotics, which has been pointed out for a long time, has been thus overcome.

[23] = S. aureus 209P JC-1, 37° C., 20 hours
[24] = S. aureus M126, 37° C., 20 hours
[25] = H. influenzae Type b, 37° C., 20 hours

Row | SMILES | MIC [1] | MIC [2] | MIC [3] | MIC [4] | MIC [5] | MIC ([6]; 20 h) | MIC [7] | MIC [8] | MIC [9] | MIC [10] | MIC [11, 23] | MIC [12, 24] | MIC [13] | MIC [14] | MIC [15] | MIC [16] | MIC [17] | MIC [18] | MIC [19] | antimicrobial activity on Gram-positive bacteria [20] | also measured
1 | CCCO[C@H]1[C@H](C)O[C@@H](O[C@H]2[C@H](N(C)C)[C@@H](O)[C@H](O[C@H]3[C@@H](CC=O)C[C@@H](C)[C@@H](O)/C=C/C=C/C[C@@H](C)OC(=O)C[C@@H](O)[C@@H]3OC)O[C@@H]2C)C[C@@]1(C)OC [(9)] | 1.56 µg/mL (≈ 2.06 µM) | 3.13 µg/mL (≈ 4.13 µM) | > 100 µg/mL | 0.78 µg/mL (≈ 1.03 µM) | 6.25 µg/mL (≈ 8.25 µM) | 12.5 µg/mL (≈ 16.5 µM) | > 100 µg/mL | 0.05 µg/mL (≈ 0.066 µM) | 0.2 µg/mL (≈ 0.264 µM) | 0.1 µg/mL (≈ 0.132 µM) | 0.2 µg/mL (≈ 0.264 µM) | > 100 µg/mL | 0.39 µg/mL (≈ 0.515 µM) | 0.39 µg/mL (≈ 0.515 µM) | > 100 µg/mL | > 100 µg/mL | 0.39 µg/mL (≈ 0.515 µM) | 0.39 µg/mL (≈ 0.515 µM) | 0.2 µg/mL (≈ 0.264 µM) | strong antimicrobial activity | 
2 | CCC(=O)O[C@@H]1CC(=O)O[C@H](C)C/C=C/C=C/[C@H](OC(C)=O)[C@H](C)C[C@H](CC=O)[C@H](O[C@@H]2O[C@H](C)[C@@H](O[C@H]3C[C@@](C)(OC)[C@@H](OCCC(C)C)[C@H](C)O3)[C@H](N(C)C)[C@H]2O)[C@H]1OC [(4)] |  |  |  |  |  |  |  |  |  |  |  |  |  |  |  |  |  |  |  |  | antimicrobial activity compared with compound (3) [21]: almost comparable to that of the compound (3); concentration in the serum (in words) [22]: sustains a high concentration in the serum; maximum concentration in the serum compared with compound (3) [22]: exceeds even that of the compound (3); concentration in the serum 6 hours after the administration, % of the maximum level ([22]; 6 hours): more than 80%; Tmax ([22]; mouse, serum, after the administration, read-out: time of maximum concentration in the serum): ~2 h
3 | CCO[C@]1(C)C[C@H](O[C@H]2[C@H](N(C)C)[C@@H](O)[C@H](O[C@H]3[C@@H](CC=O)C[C@@H](C)[C@@H](O)/C=C/C=C/C[C@@H](C)OC(=O)C[C@@H](O)[C@@H]3OC)O[C@@H]2C)O[C@@H](C)[C@@H]1OCCC(C)C [(14)] | 0.39 µg/mL (≈ 0.487 µM) | 0.78 µg/mL (≈ 0.975 µM) | > 100 µg/mL | 0.78 µg/mL (≈ 0.975 µM) | 6.25 µg/mL (≈ 7.81 µM) |  | > 100 µg/mL | 0.05 µg/mL (≈ 0.0625 µM) | 0.2 µg/mL (≈ 0.25 µM) | 0.1 µg/mL (≈ 0.125 µM) | 0.2 µg/mL (≈ 0.25 µM) | > 100 µg/mL | 0.78 µg/mL (≈ 0.975 µM) | 0.39 µg/mL (≈ 0.487 µM) | > 100 µg/mL | > 100 µg/mL | 0.39 µg/mL (≈ 0.487 µM) | 0.78 µg/mL (≈ 0.975 µM) | 0.2 µg/mL (≈ 0.25 µM) | strong antimicrobial activity | MIC [6, 25]: 12.5 µg/mL (≈ 15.6 µM)
4 | CO[C@@H]1[C@@H](O[C@@H]2O[C@H](C)[C@@H](O[C@H]3C[C@@](C)(OC)[C@@H](OCCC(C)C)[C@H](C)O3)[C@H](N(C)C)[C@H]2O)[C@@H](CC=O)C[C@@H](C)[C@@H](OC(C)=O)/C=C/C=C/C[C@@H](C)OC(=O)C[C@H]1O [(13)] |  |  |  |  |  |  |  |  |  |  |  |  |  |  |  |  |  |  |  |  | antimicrobial activity compared with compound (12) [21]: comparable in the antimicrobial activity to the compound (12)
5 | CCCO[C@]1(C)C[C@H](O[C@H]2[C@H](N(C)C)[C@@H](O)[C@H](O[C@H]3[C@@H](CC=O)C[C@@H](C)[C@@H](O)/C=C/C=C/C[C@@H](C)OC(=O)C[C@@H](O)[C@@H]3OC)O[C@@H]2C)O[C@@H](C)[C@@H]1OCCC(C)C [(15)] | 0.78 µg/mL (≈ 0.958 µM) | 0.78 µg/mL (≈ 0.958 µM) | > 100 µg/mL | 0.78 µg/mL (≈ 0.958 µM) | 6.25 µg/mL (≈ 7.68 µM) | 50 µg/mL (≈ 61.4 µM) | > 100 µg/mL | 0.1 µg/mL (≈ 0.123 µM) | 0.2 µg/mL (≈ 0.246 µM) | 0.1 µg/mL (≈ 0.123 µM) | 0.2 µg/mL (≈ 0.246 µM) | > 100 µg/mL | 0.78 µg/mL (≈ 0.958 µM) | 0.39 µg/mL (≈ 0.479 µM) | > 100 µg/mL | > 100 µg/mL | 0.39 µg/mL (≈ 0.479 µM) | 0.78 µg/mL (≈ 0.958 µM) | 0.2 µg/mL (≈ 0.246 µM) | strong antimicrobial activity | 
6 | CCC(=O)O[C@H]1[C@H](C)O[C@@H](O[C@H]2[C@H](N(C)C)[C@@H](O)[C@H](O[C@H]3[C@@H](CC=O)C[C@@H](C)[C@@H](O)/C=C/C=C/C[C@@H](C)OC(=O)C[C@@H](O)[C@@H]3OC)O[C@@H]2C)C[C@@]1(C)O [LM-A7, leucomycin A7, reference compound] | 0.78 µg/mL (≈ 1.03 µM) | 1.56 µg/mL (≈ 2.06 µM) | > 100 µg/mL | 0.78 µg/mL (≈ 1.03 µM) | 0.78 µg/mL (≈ 1.03 µM) |  | > 100 µg/mL | 0.05 µg/mL (≈ 0.066 µM) | 0.2 µg/mL (≈ 0.264 µM) | 0.1 µg/mL (≈ 0.132 µM) |  |  | 0.39 µg/mL (≈ 0.515 µM) | 0.39 µg/mL (≈ 0.515 µM) | > 100 µg/mL | > 100 µg/mL | 0.39 µg/mL (≈ 0.515 µM) | 0.39 µg/mL (≈ 0.515 µM) | 0.2 µg/mL (≈ 0.264 µM) |  | MIC [6, 25]: 6.25 µg/mL (≈ 8.25 µM); MIC ([11]; 209P, 20 h): 0.2 µg/mL (≈ 0.264 µM); MIC ([12]; M126, 20 h): > 100 µg/mL
